Patent US7880007B2, “Bicyclic substituted phenyl piperidine modulators of muscarinic receptors” (Vertex Pharmaceuticals Incorporated, priority 2004, dated 2011)

Columns and labels:
Assay type in all cases: cell-based
M4 muscarinic receptor = target: T1, M4 muscarinic receptor (Homo sapiens, UniProt P08173); test: Functional mobilization of intracellular calcium (FLIPR), M4-CHO cells; conditions: for Emax: 100% efficacy = maximum response obtained with the Carbachol control; for M4 Activity: M4-CHO cells, calcium mobilization (FLIPR)
T1 construct: expressed in transfected cells; host or cells: CHO (M4-CHO)
T1 sequence (P08173 1-479): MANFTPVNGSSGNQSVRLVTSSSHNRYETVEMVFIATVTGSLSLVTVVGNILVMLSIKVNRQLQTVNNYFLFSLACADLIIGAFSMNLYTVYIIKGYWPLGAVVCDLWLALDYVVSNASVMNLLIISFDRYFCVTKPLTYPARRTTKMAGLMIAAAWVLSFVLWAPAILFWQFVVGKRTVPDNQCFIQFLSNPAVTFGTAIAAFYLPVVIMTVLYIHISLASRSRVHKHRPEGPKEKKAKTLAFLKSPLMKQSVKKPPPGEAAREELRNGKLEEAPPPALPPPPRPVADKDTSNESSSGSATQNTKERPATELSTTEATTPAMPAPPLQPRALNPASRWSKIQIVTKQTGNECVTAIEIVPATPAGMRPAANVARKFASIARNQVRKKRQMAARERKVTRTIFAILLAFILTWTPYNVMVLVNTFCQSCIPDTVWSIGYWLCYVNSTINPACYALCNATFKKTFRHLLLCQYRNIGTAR
Method in brief: (§1)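 CHO cells expressing human M1–M4 receptors loaded with Fluo-3 AM or Calcium 3 dye (1 mM probenecid, pH 7.4); 0.5% DMSO final. Agonist mode: compound added directly; antagonist mode: 15 min pre-incubation or co-application, then carbachol at EC80. Fluorescence read 60 s on FLIPR; efficacy relative to carbachol maximum.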

M3 muscarinic receptor = target: T2, M3 muscarinic receptor (Homo sapiens, UniProt P20309); test: Functional mobilization of intracellular calcium (FLIPR), M3-CHO cells; conditions: for Emax: 100% efficacy = maximum response obtained with the Carbachol control; for M3 Activity: M3-CHO cells, calcium mobilization (FLIPR)
T2 construct: expressed in transfected cells; host or cells: CHO (M3-CHO)
T2 sequence (P20309 whole entry): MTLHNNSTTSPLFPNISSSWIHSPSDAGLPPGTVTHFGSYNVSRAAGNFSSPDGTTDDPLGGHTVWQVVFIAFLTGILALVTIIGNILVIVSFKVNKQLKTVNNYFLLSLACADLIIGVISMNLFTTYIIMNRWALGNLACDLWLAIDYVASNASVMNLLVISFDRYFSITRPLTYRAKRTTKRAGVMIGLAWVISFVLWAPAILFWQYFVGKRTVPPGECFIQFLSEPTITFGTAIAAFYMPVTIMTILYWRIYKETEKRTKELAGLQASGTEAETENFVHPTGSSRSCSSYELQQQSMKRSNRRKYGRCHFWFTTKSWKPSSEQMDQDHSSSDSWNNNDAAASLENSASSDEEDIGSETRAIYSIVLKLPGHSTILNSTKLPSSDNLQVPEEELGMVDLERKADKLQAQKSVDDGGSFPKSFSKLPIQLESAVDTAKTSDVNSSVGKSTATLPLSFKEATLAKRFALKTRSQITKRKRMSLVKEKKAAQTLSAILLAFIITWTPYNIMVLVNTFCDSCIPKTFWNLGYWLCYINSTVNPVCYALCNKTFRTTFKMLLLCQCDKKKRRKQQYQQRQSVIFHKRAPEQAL
Method in brief: as §1

M1 muscarinic receptor = target: T3, M1 muscarinic receptor (Homo sapiens, UniProt P11229); test: Functional mobilization of intracellular calcium (FLIPR), M1-CHO cells; conditions: for Emax: 100% efficacy = maximum response obtained with the Carbachol control; for M1 Activity: M1-CHO cells, calcium mobilization (FLIPR)
T3 construct: expressed in transfected cells; host or cells: CHO (M1-CHO)
T3 sequence (P11229 1-460): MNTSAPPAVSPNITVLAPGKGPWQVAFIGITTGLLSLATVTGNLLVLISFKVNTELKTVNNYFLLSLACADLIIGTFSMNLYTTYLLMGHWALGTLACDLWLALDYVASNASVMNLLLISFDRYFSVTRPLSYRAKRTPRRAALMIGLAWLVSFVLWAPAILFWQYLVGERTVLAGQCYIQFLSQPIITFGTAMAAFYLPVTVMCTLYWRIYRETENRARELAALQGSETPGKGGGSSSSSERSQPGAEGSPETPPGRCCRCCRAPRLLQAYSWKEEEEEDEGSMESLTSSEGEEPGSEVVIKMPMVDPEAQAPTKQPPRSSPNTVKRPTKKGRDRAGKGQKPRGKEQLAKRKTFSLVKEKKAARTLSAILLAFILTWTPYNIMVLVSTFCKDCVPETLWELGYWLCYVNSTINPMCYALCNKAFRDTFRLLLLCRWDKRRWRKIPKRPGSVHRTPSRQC
Method in brief: as §1

M2 muscarinic receptor = target: T4, M2 muscarinic receptor (Homo sapiens, UniProt P08172); test: Functional mobilization of intracellular calcium (FLIPR), M2-CHO cells; conditions: for Emax: 100% efficacy = maximum response obtained with the Carbachol control; for M2 Activity: M2-CHO cells, calcium mobilization (FLIPR)
T4 construct: expressed in transfected cells; host or cells: CHO (M2-CHO)
T4 sequence (P08172 1-466): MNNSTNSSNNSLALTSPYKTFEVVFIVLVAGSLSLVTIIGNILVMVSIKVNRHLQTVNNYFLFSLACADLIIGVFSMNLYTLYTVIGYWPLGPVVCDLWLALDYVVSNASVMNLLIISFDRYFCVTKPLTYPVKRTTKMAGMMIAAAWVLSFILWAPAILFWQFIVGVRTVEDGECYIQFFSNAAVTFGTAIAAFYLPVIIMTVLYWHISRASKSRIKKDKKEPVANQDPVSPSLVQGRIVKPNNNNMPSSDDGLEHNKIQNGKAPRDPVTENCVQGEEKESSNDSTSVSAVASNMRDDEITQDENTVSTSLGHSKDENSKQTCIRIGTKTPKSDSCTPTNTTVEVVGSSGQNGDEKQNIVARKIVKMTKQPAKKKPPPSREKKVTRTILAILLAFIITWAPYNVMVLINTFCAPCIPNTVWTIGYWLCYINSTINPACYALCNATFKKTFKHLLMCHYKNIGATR
Method in brief: as §1

Row | SMILES | Emax (M4 muscarinic receptor) [%] | M4 Activity (M4 muscarinic receptor) | Emax (M3 muscarinic receptor) [%] | M3 Activity (M3 muscarinic receptor) | Emax (M1 muscarinic receptor) [%] | M1 Activity (M1 muscarinic receptor) | Emax (M2 muscarinic receptor) [%] | M2 Activity (M2 muscarinic receptor)
1 | COc1ccc(-c2ccc(C(C)(C)C#N)cc2)cc1C1CCN(C2CCCCC2)CC1 [Compound 105] | 25 to 100 | + (activity was measured to be greater than 5.0 μM) | < 25 | + (activity was measured to be greater than 5.0 μM) | 25 to 100 | ++ (activity was measured to be from 1.0 μM to 5.0 μM) | 25 to 100 | + (activity was measured to be greater than 5.0 μM)
2 | CCOC(=O)N1CCC(N2CCC(c3cc(F)ccc3OC)CC2)CC1 [Compound 106] | 25 to 100 | +++ (activity was measured to be less than 1.0 μM) | < 25 | +++ (activity was measured to be less than 1.0 μM) | 25 to 100 | +++ (activity was measured to be less than 1.0 μM) | 25 to 100 | +++ (activity was measured to be less than 1.0 μM)
3 | CCOC(=O)N1CCC(CN2CCC(OC)(c3cc(Cl)ccc3OC)CC2)CC1 [Compound 108] | 25 to 100 | +++ (activity was measured to be less than 1.0 μM) | < 25 | + (activity was measured to be greater than 5.0 μM) | 25 to 100 | +++ (activity was measured to be less than 1.0 μM) | < 25 | ++ (activity was measured to be from 1.0 μM to 5.0 μM)
4 | COc1ccc(C(=O)C(C)(C)C)cc1C1CCN([C@H]2C[C@H]3CC[C@H]2C3)CC1 [Compound 109] | 25 to 100 | + (activity was measured to be greater than 5.0 μM) | < 25 | + (activity was measured to be greater than 5.0 μM) | 25 to 100 | ++ (activity was measured to be from 1.0 μM to 5.0 μM) | < 25 | + (activity was measured to be greater than 5.0 μM)
5 | c1ccc(-c2ccccc2C2CCN([C@H]3C[C@H]4CC[C@H]3C4)CC2)cc1 [Compound 110] | 25 to 100 | ++ (activity was measured to be from 1.0 μM to 5.0 μM) | < 25 | + (activity was measured to be greater than 5.0 μM) | < 25 | + (activity was measured to be greater than 5.0 μM) | < 25 | + (activity was measured to be greater than 5.0 μM)
6 | COCCOc1ccccc1C1CCN([C@H]2C[C@H]3CC[C@H]2C3)CC1 [Compound 111] | 25 to 100 | +++ (activity was measured to be less than 1.0 μM) | < 25 | + (activity was measured to be greater than 5.0 μM) | 25 to 100 | ++ (activity was measured to be from 1.0 μM to 5.0 μM) | 25 to 100 | + (activity was measured to be greater than 5.0 μM)
7 | COc1ccccc1C1CCN(C2CC3CC(C)CC(C3)C2)CC1 (stereo not drawn) [Compound 112] | 25 to 100 | + (activity was measured to be greater than 5.0 μM) | < 25 | + (activity was measured to be greater than 5.0 μM) | < 25 | + (activity was measured to be greater than 5.0 μM) | < 25 | + (activity was measured to be greater than 5.0 μM)
8 | COc1ccccc1C1CCN(C2CCCCC2)CC1 [Compound 113] | 25 to 100 | +++ (activity was measured to be less than 1.0 μM) | < 25 | + (activity was measured to be greater than 5.0 μM) | 25 to 100 | ++ (activity was measured to be from 1.0 μM to 5.0 μM) | < 25 | + (activity was measured to be greater than 5.0 μM)
9 | c1ccc(COc2ccccc2C2CCN([C@H]3C[C@H]4CC[C@H]3C4)CC2)cc1 [Compound 114] | 25 to 100 | ++ (activity was measured to be from 1.0 μM to 5.0 μM) | < 25 | + (activity was measured to be greater than 5.0 μM) | < 25 | + (activity was measured to be greater than 5.0 μM) | < 25 | + (activity was measured to be greater than 5.0 μM)
10 | COc1ccc(Cl)cc1C1CCN(C2CCC(F)(F)CC2)CC1 [Compound 115] | 25 to 100 | ++ (activity was measured to be from 1.0 μM to 5.0 μM) | < 25 | + (activity was measured to be greater than 5.0 μM) | 25 to 100 | + (activity was measured to be greater than 5.0 μM) | < 25 | + (activity was measured to be greater than 5.0 μM)
11 | COc1cccc(-c2ccccc2C2CCN([C@H]3C[C@H]4CC[C@H]3C4)CC2)c1 [Compound 116] | 25 to 100 | ++ (activity was measured to be from 1.0 μM to 5.0 μM) | < 25 | + (activity was measured to be greater than 5.0 μM) | 25 to 100 | + (activity was measured to be greater than 5.0 μM) | < 25 | + (activity was measured to be greater than 5.0 μM)
12 | COc1ccccc1[C@H]1CCN([C@@H]2C[C@H]3CC[C@H]2C3)C[C@@H]1O [Compound 117] | 25 to 100 | + (activity was measured to be greater than 5.0 μM) | < 25 | + (activity was measured to be greater than 5.0 μM) | < 25 | + (activity was measured to be greater than 5.0 μM) | < 25 | + (activity was measured to be greater than 5.0 μM)
13 | CCOC(=O)N1C2CCC1CC(N1CCC(OC)(c3cc(F)ccc3OC)CC1)C2 (stereo not drawn) [Compound 118] | 25 to 100 | +++ (activity was measured to be less than 1.0 μM) | < 25 | + (activity was measured to be greater than 5.0 μM) | 25 to 100 | +++ (activity was measured to be less than 1.0 μM) | < 25 | + (activity was measured to be greater than 5.0 μM)
14 | COc1cccc(C(=O)COc2ccccc2C2CCN([C@H]3C[C@H]4CC[C@H]3C4)CC2)c1 [Compound 119] | 25 to 100 | ++ (activity was measured to be from 1.0 μM to 5.0 μM) | < 25 | + (activity was measured to be greater than 5.0 μM) | 25 to 100 | + (activity was measured to be greater than 5.0 μM) | 25 to 100 | + (activity was measured to be greater than 5.0 μM)
15 | COc1ccc(-c2ccc(C(F)(F)F)cc2)cc1C1CCN([C@H]2C[C@H]3CC[C@H]2C3)CC1 [Compound 120] | 25 to 100 | + (activity was measured to be greater than 5.0 μM) | < 25 | + (activity was measured to be greater than 5.0 μM) | 25 to 100 | + (activity was measured to be greater than 5.0 μM) | < 25 | + (activity was measured to be greater than 5.0 μM)
